Literature values, collected in patent publication US6419963B1, “Composition and method for the treatment of diaper rash using natural products” (priority 2001, dated 2002).

Key:
[1] = system: ethanol-induced ulcers; conditions: rats

| Molecule | solubility in water | ethanol-induced ulcers [1] |
| --- | --- | --- |
| Zinc glycerolate | insoluble | – |
| CN/C(=N/CCSCc1nc[nH]c1C)NC#N [cimetidine] | – | not affected |
| [O]=[Zn] [Zinc oxide] | almost totally insoluble | – |
